Results taken from ChEMBL document CHEMBL3997824, “Synthesis and biological evaluation of potential inhibitors of the cysteine proteases cruzain and rhodesain designed by molecular simplification” (Bioorg Med Chem, 2017).
The source made the active and inactive calls. No cut-off for these calls is given here.

Legend:
[1] = molecular target: Cruzipain (Trypanosoma cruzi) (UniProt P25779); test: Inhibition of recombinant Trypanosoma cruzi cruzain at 100 uM using Z-phe-Arg-amidomethylcoumarin as substrate by fluorometric method relative to control
Sequence of Cruzipain (Trypanosoma cruzi) (P25779 123-467 limits assumed): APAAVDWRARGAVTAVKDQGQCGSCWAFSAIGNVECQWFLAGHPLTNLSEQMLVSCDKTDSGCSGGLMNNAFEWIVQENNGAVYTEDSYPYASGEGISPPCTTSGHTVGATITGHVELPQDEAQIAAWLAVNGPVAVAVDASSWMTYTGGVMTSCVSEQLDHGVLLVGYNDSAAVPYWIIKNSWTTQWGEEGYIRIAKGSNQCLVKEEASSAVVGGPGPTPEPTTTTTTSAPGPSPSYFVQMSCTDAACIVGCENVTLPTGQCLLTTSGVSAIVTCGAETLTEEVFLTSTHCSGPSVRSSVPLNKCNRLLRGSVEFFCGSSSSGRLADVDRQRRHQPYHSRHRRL

Trypanosoma brucei [2] = test: Inhibition of recombinant Trypanosoma brucei rhodesain at 100 uM using Z-phe-Arg-amidomethylcoumarin as substrate by fluorometric method relative to control
Cruzipain [3] = molecular target: T1, Cruzipain (Trypanosoma cruzi, UniProt P25779); test: Inhibition of recombinant Trypanosoma cruzi cruzain using Z-phe-Arg-amidomethylcoumarin as substrate by fluorometric method
T1 sequence (P25779 whole entry): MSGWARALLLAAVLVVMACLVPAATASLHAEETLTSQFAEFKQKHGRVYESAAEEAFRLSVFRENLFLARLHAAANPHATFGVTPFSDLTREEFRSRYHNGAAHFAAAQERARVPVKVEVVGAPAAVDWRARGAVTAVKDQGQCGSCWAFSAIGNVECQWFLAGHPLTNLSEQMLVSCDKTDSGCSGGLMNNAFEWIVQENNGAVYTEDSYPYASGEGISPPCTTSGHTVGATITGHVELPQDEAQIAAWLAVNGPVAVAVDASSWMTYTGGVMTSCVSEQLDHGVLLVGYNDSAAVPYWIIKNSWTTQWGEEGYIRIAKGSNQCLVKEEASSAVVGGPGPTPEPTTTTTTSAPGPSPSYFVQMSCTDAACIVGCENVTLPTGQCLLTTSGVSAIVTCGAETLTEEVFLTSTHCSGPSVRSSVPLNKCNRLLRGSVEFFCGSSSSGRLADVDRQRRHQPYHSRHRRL

[4] = Inhibition of recombinant Trypanosoma brucei rhodesain using Z-phe-Arg-amidomethylcoumarin as substrate by fluorometric method
[5] = molecular target: Cathepsin S (Homo sapiens) (UniProt P25774); test: Inhibition of recombinant human cathepsin S at 100 uM using cbz-val-val-arg-7-amino-4-methylcoumarin as substrate measured for 15 mins by fluorescence assay relative to control
Sequence of Cathepsin S (Homo sapiens) (P25774 115-331 limits assumed): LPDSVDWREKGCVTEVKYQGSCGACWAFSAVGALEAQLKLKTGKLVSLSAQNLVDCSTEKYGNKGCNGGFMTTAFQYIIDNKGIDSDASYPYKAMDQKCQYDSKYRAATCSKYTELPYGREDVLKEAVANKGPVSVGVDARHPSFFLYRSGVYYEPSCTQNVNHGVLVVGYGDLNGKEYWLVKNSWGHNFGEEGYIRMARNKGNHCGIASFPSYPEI

[6] = molecular target: Cathepsin S (Homo sapiens) (UniProt P25774); test: Inhibition of recombinant human cathepsin S at 100 uM using cbz-val-val-arg-7-amino-4-methylcoumarin as substrate preincubated for 5 mins followed by substrate addition measured for 15 mins by fluorescence assay relative to control
[7] = molecular target: Cathepsin B (Rattus norvegicus) (UniProt P00787); test: Inhibition of rat cathepsin B at 100 uM using cbz-phe-Arg-amidomethylcoumarin as substrate measured for 15 mins by fluorescence assay relative to control
Sequence of Cathepsin B (Rattus norvegicus) (P00787 80-333 limits assumed): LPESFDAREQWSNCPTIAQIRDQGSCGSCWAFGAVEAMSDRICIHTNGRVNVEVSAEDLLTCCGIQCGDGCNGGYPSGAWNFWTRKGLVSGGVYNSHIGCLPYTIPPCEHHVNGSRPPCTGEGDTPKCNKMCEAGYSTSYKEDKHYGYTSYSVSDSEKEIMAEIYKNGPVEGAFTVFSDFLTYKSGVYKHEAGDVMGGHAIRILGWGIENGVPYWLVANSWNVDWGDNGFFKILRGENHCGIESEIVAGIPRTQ

[8] = molecular target: Cathepsin B (Rattus norvegicus) (UniProt P00787); test: Inhibition of rat cathepsin B at 100 uM using cbz-phe-Arg-amidomethylcoumarin as substrate preincubated for 5 mins followed by substrate addition measured for 15 mins by fluorescence assay relative to control
Trypanosoma cruzi [9] = test: Antitrypanosomal activity against Trypanosoma cruzi Tulahuen trypomastigote forms infected in mouse L929 cells after 96 hrs by chlorophenol red-beta-D-galactopyranoside dye based assay; format: functional, cell-based; settings: L929, 96 h
[10] = Cytotoxicity against mouse L929 cells after 96 hrs by alamar blue assay; format: cell-based
[11] = Selectivity index, ratio of CC50 for mouse L929 cells to IC50 for Trypanosoma cruzi Tulahuen trypomastigote forms infected in mouse L929 cells; format: toxicity, cell-based; settings: read-out: Ratio CC50/IC50
Trypanosoma cruzi [12] = test: Antitrypanosomal activity against Trypanosoma cruzi Tulahuen trypomastigote forms infected in mouse L929 cells up to 250 uM after 96 hrs by chlorophenol red-beta-D-galactopyranoside dye based assay; format: functional, cell-based
Cruzipain [13] = molecular target: T1, Cruzipain; test: Competitive inhibition of recombinant Trypanosoma cruzi cruzain in presence of varying levels of Z-phe-Arg-amidomethylcoumarin substrate by Lineweaver-Burk plot analysis
[14] = molecular target: Cruzipain (Trypanosoma cruzi) (UniProt P25779); test: Inhibition of recombinant Trypanosoma cruzi cruzain at 100 uM in AcOH/AcONA buffer using Z-phe-Arg-amidomethylcoumarin as substrate by fluorometric method relative to control
Trypanosoma brucei [15] = test: Inhibition of recombinant Trypanosoma brucei rhodesain at 100 uM in AcOH/AcONA buffer using Z-phe-Arg-amidomethylcoumarin as substrate by fluorometric method relative to control
[16] = Inhibition of recombinant Trypanosoma brucei rhodesain in AcOH/AcONA buffer using Z-phe-Arg-amidomethylcoumarin as substrate by fluorometric method
[17] = molecular target: Cathepsin S (Homo sapiens) (UniProt P25774); test: Inhibition of recombinant human cathepsin S at 1 uM using cbz-val-val-arg-7-amino-4-methylcoumarin as substrate measured for 15 mins by fluorescence assay relative to control
[18] = molecular target: Cathepsin S (Homo sapiens) (UniProt P25774); test: Inhibition of recombinant human cathepsin S at 1 uM using cbz-val-val-arg-7-amino-4-methylcoumarin as substrate preincubated for 5 mins followed by substrate addition measured for 15 mins by fluorescence assay relative to control
[19] = molecular target: Cathepsin B (Rattus norvegicus) (UniProt P00787); test: Inhibition of rat cathepsin B at 1 uM using cbz-phe-Arg-amidomethylcoumarin as substrate measured for 15 mins by fluorescence assay relative to control
[20] = molecular target: Cathepsin B (Rattus norvegicus) (UniProt P00787); test: Inhibition of rat cathepsin B at 1 uM using cbz-phe-Arg-amidomethylcoumarin as substrate preincubated for 5 mins followed by substrate addition measured for 15 mins by fluorescence assay relative to control

SMILES: Clc1ccc2c(NCc3ccccc3)ccnc2c1
- inhibition [1]: 65%
- inhibition (Trypanosoma brucei [2]): 71%
- IC50 (Cruzipain [3]): 44 µM
- IC50 [4]: 34.2 µM
- inhibition [5]: 17%
- inhibition [6]: 12%
- inhibition [7]: 2%
- inhibition [8]: 9%
- IC50 (Trypanosoma cruzi [9]): 37.2 µM
- CC50 at 96 h [10]: 46.5 µM
- selectivity ratio [11]: 1.2

SMILES: c1cc(NCCCN2CCOCC2)ncn1
- inhibition [1]: 1%
- inhibition (Trypanosoma brucei [2]): 5%
- Activity (Trypanosoma cruzi [12]): inactive

SMILES: Clc1ccc2c(NCCCN3CCOCC3)ccnc2c1
- inhibition [1]: 88%
- inhibition (Trypanosoma brucei [2]): 51%
- IC50 (Cruzipain [3]): 15 µM
- Ki (Cruzipain [13]): 12.1 µM
- inhibition [5]: 13%
- inhibition [6]: 10%
- inhibition [7]: 6%
- inhibition [8]: 8%
- IC50 (Trypanosoma cruzi [9]): 67.7 µM
- CC50 at 96 h [10]: 123 µM
- selectivity ratio [11]: 1.8

SMILES: c1c[nH]c(CN2CCOCC2)c1
- inhibition [1]: 23.6%
- inhibition (Trypanosoma brucei [2]): 66.7%
- IC50 [4]: 55 µM
- Activity (Trypanosoma cruzi [12]): inactive

SMILES: c1c[nH]c(CN2CCc3ccccc3C2)c1
- inhibition [1]: 3.2%
- inhibition (Trypanosoma brucei [2]): 49.1%
- Activity (Trypanosoma cruzi [12]): inactive

SMILES: O=C(CNCCCN1CCOCC1)Nc1ccc(Cl)cc1
- inhibition [1]: 16.5%
- inhibition (Trypanosoma brucei [2]): 21%
- Activity (Trypanosoma cruzi [12]): inactive

SMILES: O=C(CNCCCN1CCOCC1)Nc1ccccc1
- inhibition [1]: 2.9%
- inhibition (Trypanosoma brucei [2]): 7.4%
- Activity (Trypanosoma cruzi [12]): inactive

SMILES: OCCCNc1ccnc2cc(Cl)ccc12
- inhibition [1]: 67%
- inhibition (Trypanosoma brucei [2]): 63%
- IC50 (Cruzipain [3]): 28 µM
- IC50 [4]: 72 µM
- inhibition [5]: 14%
- inhibition [6]: 4%
- inhibition [7]: 8%
- inhibition [8]: 5%
- Activity (Trypanosoma cruzi [12]): inactive

SMILES: CN1CCN(CC(=O)Nc2ccccc2)CC1
- inhibition [1]: 38.6%
- inhibition (Trypanosoma brucei [2]): 7.4%
- Activity (Trypanosoma cruzi [12]): inactive

SMILES: Cc1ccc(NC(=O)CN2CCN(C)CC2)cc1
- inhibition [1]: 0%
- inhibition (Trypanosoma brucei [2]): 15.5%
- Activity (Trypanosoma cruzi [12]): inactive

SMILES: OCCNc1ccnc2cc(Cl)ccc12
- inhibition [1]: 60%
- inhibition (Trypanosoma brucei [2]): 61%
- IC50 (Cruzipain [3]): 62 µM
- IC50 [4]: 58 µM
- Activity (Trypanosoma cruzi [12]): inactive

SMILES: Clc1ccc2[nH]c(CNC3CCCCC3)cc2c1
- inhibition [1]: 8%
- inhibition (Trypanosoma brucei [2]): 4%
- IC50 (Trypanosoma cruzi [9]): 10.7 µM
- CC50 at 96 h [10]: 12.5 µM
- selectivity ratio [11]: 1.2

SMILES: O=C(CN1CCc2ccccc2C1)Nc1ccc(Cl)cc1
- inhibition [1]: 18.2%
- inhibition (Trypanosoma brucei [2]): 20.5%
- IC50 (Trypanosoma cruzi [9]): 64.2 µM
- CC50 at 96 h [10]: < 125 µM
- selectivity ratio [11]: < 1.9

SMILES: c1ccc(CNCc2cc3ccccc3[nH]2)cc1
- inhibition [1]: 9%
- inhibition (Trypanosoma brucei [2]): 8%
- Activity (Trypanosoma cruzi [12]): inactive

SMILES: Clc1ccc2[nH]c(CNCCCN3CCOCC3)cc2c1
- inhibition [1]: 15%
- inhibition (Trypanosoma brucei [2]): 1%
- IC50 (Trypanosoma cruzi [9]): 38.9 µM
- CC50 at 96 h [10]: 75 µM
- selectivity ratio [11]: 1.9

SMILES: OCCN1CCN(c2ccnc3cc(Cl)ccc23)CC1
- inhibition [14]: 42.6%
- inhibition (Trypanosoma brucei [15]): 53%
- Activity (Trypanosoma cruzi [12]): inactive

SMILES: NCCCNc1ccnc2cc(Cl)ccc12
- inhibition [14]: 39%
- inhibition (Trypanosoma brucei [15]): 53%
- Activity (Trypanosoma cruzi [12]): inactive

SMILES: CN1CCN(CC(=O)Nc2ccc(Cl)cc2)CC1
- inhibition [1]: 28.5%
- inhibition (Trypanosoma brucei [2]): 22.6%
- Activity (Trypanosoma cruzi [12]): inactive

SMILES: Clc1ccc2[nH]c3c(NCCCN4CCOCC4)ncnc3c2c1
- IC50 (Cruzipain [3]): 15 µM

SMILES: Clc1ccc2[nH]c(CNCc3ccccc3)cc2c1
- inhibition [1]: 4%
- inhibition (Trypanosoma brucei [2]): 5%
- IC50 (Trypanosoma cruzi [9]): 25 µM
- CC50 at 96 h [10]: 31 µM
- selectivity ratio [11]: 1.2

SMILES: Clc1ccc2c(NCCN3CCOCC3)ccnc2c1
- inhibition [1]: 56%
- inhibition (Trypanosoma brucei [2]): 61%
- IC50 (Cruzipain [3]): 41 µM
- IC50 [4]: 61 µM
- Activity (Trypanosoma cruzi [12]): inactive

SMILES: c1c[nH]c(CNCCCN2CCOCC2)c1
- inhibition [1]: 0%
- inhibition (Trypanosoma brucei [2]): 15.1%
- Activity (Trypanosoma cruzi [12]): inactive

SMILES: Cc1ccc(NC(=O)CN2CCc3ccccc3C2)cc1
- inhibition [1]: 15.3%
- inhibition (Trypanosoma brucei [2]): 16.7%
- IC50 (Trypanosoma cruzi [9]): 83.3 µM
- CC50 at 96 h [10]: 125 µM
- selectivity ratio [11]: 1.5

SMILES: O=C(Cn1ccnc1[N+](=O)[O-])NCc1ccccc1 [BENZNIDAZOLE]
- IC50 (Trypanosoma cruzi [9]): 3.8 µM

SMILES: c1ccc2c(c1)CCN(c1ccncn1)C2
- inhibition [1]: 15%
- inhibition (Trypanosoma brucei [2]): 20%
- IC50 (Trypanosoma cruzi [9]): 3.1 µM
- CC50 at 96 h [10]: 400 µM
- selectivity ratio [11]: 128

SMILES: c1ccc2[nH]c(CNCCCN3CCOCC3)cc2c1
- inhibition [1]: 4%
- inhibition (Trypanosoma brucei [2]): 7%
- Activity (Trypanosoma cruzi [12]): inactive

SMILES: O=C(CN1CCc2ccccc2C1)Nc1ccccc1
- inhibition [1]: 7.7%
- inhibition (Trypanosoma brucei [2]): 19.1%
- IC50 (Trypanosoma cruzi [9]): 245 µM
- CC50 at 96 h [10]: 375 µM
- selectivity ratio [11]: 1.5

SMILES: CN1CCN(c2ccncn2)CC1
- inhibition [1]: 5%
- inhibition (Trypanosoma brucei [2]): 13%
- Activity (Trypanosoma cruzi [12]): inactive

SMILES: NCCNc1ccnc2cc(Cl)ccc12
- IC50 (Trypanosoma cruzi [9]): 77.5 µM
- CC50 at 96 h [10]: < 194 µM
- selectivity ratio [11]: < 2.5
- inhibition [14]: 44%
- inhibition (Trypanosoma brucei [15]): 62%
- IC50 [16]: 126 µM

SMILES: Cc1ccc(NC(=O)CNCCCN2CCOCC2)cc1
- inhibition [1]: 3.5%
- inhibition (Trypanosoma brucei [2]): 13.1%
- Activity (Trypanosoma cruzi [12]): inactive

SMILES: O=C(CNc1ccnc2cc(Cl)ccc12)N1CCOCC1
- inhibition [1]: 55%
- inhibition (Trypanosoma brucei [2]): 61%
- IC50 [4]: 48 µM
- Activity (Trypanosoma cruzi [12]): inactive

SMILES: Clc1ccc2c(NCCN3CCCCC3)ccnc2c1
- inhibition [1]: 43%
- inhibition (Trypanosoma brucei [2]): 56%
- IC50 (Trypanosoma cruzi [9]): 57.6 µM
- CC50 at 96 h [10]: 64.5 µM
- selectivity ratio [11]: 1.1

SMILES: Clc1ccc2c(NCCCN3CCCCC3)ccnc2c1
- inhibition [1]: 53%
- inhibition (Trypanosoma brucei [2]): 61%
- IC50 (Trypanosoma cruzi [9]): 38.2 µM
- CC50 at 96 h [10]: 61.5 µM
- selectivity ratio [11]: 1.6

SMILES: CCCNc1ccnc2cc(Cl)ccc12
- inhibition [1]: 53%
- inhibition (Trypanosoma brucei [2]): 49%
- IC50 (Trypanosoma cruzi [9]): 125 µM
- CC50 at 96 h [10]: 283 µM
- selectivity ratio [11]: 2.3

SMILES: CN1CCN(Cc2ccc[nH]2)CC1
- inhibition [1]: 10.9%
- inhibition (Trypanosoma brucei [2]): 32.1%
- Activity (Trypanosoma cruzi [12]): inactive

SMILES: CC(C)C[C@H](NC(=O)[C@@H]1O[C@H]1C(=O)O)C(=O)NCCCCN=C(N)N
- inhibition [17]: 100%
- inhibition [18]: 100%
- inhibition [19]: 99%
- inhibition [20]: 100%

SMILES: c1ccc2[nH]c(CNC3CCCCC3)cc2c1
- inhibition [1]: 6%
- inhibition (Trypanosoma brucei [2]): 8%
- Activity (Trypanosoma cruzi [12]): inactive
